{"source": "paper PMC10703426", "about": "“New characterization of dihydroergotamine receptor pharmacology in the context of migraine: utilization of a β-arrestin recruitment assay” (Frontiers in Neurology, 2023)", "key": {"[1]": {"target": "T1, D1 (Homo sapiens, UniProt P21728)", "T1 construct": "ProLink enzyme-donor fragment of β-galactosidase (own knowledge of the PathHunter design)", "experiment": "gpcrMAX PathHunter β-arrestin recruitment, antagonist mode", "type": "cell-based", "conditions": "agonist control Dopamine at EC80", "procedure": "(§1) PathHunter cell lines were expanded from freezer stocks according to standard procedures and cells were seeded in a total volume of 20 μL into white-walled, 384-well microplates in duplicate and incubated at 37°C prior to testing. […] Intermediate dilution (1% vehicle concentration) of sample stocks was performed to generate a 5× sample in assay buffer, of which 5 μL was added to the cells and incubated for 90 or 180 min at 37°C or room temperature, depending on the specific receptor, as established by manufacturer optimization protocols (see Supplementary Table 1). For antagonist activity, cells were preincubated with an antagonist for 30 min, followed by an agonist challenge at 80% of the maximal effective concentration (EC80). Intermediate dilution of sample stocks was performed to generate 5× sample in assay buffer, of which 5 μL was added to cells and incubated at 37°C or room temperature for 30 min. This was followed by an addition of 5 μL of 6× EC80 agonist in assay buffer to the cells, which were incubated at 37°C or room temperature for 90 or 180 min. Assay signal for agonist and antagonist modes was generated through a single addition of 12.5 or 15 μL (50% v/v) of PathHunter Detection reagent cocktail, followed by a 1-h incubation at room temperature. Further experimental details can be found in the Supplementary File. Microplates were read with a PerkinElmer EnVision (Shelton, CT) instrument for chemiluminescent signal detection.\n(§2) Measurement of agonist and antagonist activity in the assay was calculated as percent activity of relative luminescence units (from positive control). Significance of agonist/antagonist activity was determined based upon prespecified criteria provided by Eurofins DiscoverX. In brief, receptor activity >30% was considered a significant agonist effect. Receptor inhibition >50% was considered a significant inhibitory effect. Please refer to the Supplementary File for more detail.\n(§3) Samples were added to cells and incubated for 90 or 180 minutes at 37 °C or room temperature, depending on the specific receptor, as noted, with specific incubation protocols outlined in Supplemental Table 1. For antagonist activity, preincubation temperatures were performed at the temperatures specified in Supplemental Table 1, per target. Incubation with 6× EC80 agonist was determined by the assay manufacturer and selected in order to provide a challenge that was low enough to be below the saturation point, so as to not bias the results, while still at a high enough challenge concentration to yield a robust signal-to-noise ratio. Further information is available from Eurofins Discovery Services upon request."}, "[2]": {"target": "T2, D4 (Homo sapiens, UniProt P21917)", "T2 construct": "ProLink enzyme-donor fragment of β-galactosidase (own knowledge of the PathHunter design)", "T2 sequence (P21917 whole entry, the tested form may be a part)": "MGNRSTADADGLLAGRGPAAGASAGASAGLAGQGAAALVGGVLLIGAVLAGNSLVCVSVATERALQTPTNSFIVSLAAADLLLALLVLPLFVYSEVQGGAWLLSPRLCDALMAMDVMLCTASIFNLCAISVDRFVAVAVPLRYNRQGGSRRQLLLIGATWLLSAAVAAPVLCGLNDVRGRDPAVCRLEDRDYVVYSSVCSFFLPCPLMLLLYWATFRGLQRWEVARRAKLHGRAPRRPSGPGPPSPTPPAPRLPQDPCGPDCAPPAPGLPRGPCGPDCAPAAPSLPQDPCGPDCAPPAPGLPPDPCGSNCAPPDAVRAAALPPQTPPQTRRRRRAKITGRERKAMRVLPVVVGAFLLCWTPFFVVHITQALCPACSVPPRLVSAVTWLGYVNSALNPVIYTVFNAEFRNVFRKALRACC", "experiment": "gpcrMAX PathHunter β-arrestin recruitment, antagonist mode", "type": "cell-based", "procedure": "as §1, §2, §3"}, "[3]": {"target": "T3, D3 (Homo sapiens, UniProt P35462)", "T3 construct": "ProLink enzyme-donor fragment of β-galactosidase (own knowledge of the PathHunter design)", "T3 sequence (P35462 whole entry, the tested form may be a part)": "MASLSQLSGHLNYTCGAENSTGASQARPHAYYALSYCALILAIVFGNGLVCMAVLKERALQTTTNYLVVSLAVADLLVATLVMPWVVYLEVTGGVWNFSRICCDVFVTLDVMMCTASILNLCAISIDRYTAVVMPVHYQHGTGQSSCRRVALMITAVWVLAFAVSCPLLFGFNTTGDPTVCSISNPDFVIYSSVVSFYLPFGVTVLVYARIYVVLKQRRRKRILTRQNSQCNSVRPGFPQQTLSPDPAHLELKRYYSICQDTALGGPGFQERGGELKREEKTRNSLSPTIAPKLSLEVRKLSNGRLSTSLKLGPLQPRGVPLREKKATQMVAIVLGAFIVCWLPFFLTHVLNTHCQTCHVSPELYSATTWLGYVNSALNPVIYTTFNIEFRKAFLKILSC", "experiment": "gpcrMAX PathHunter β-arrestin recruitment, antagonist mode", "type": "cell-based", "procedure": "as §1, §2, §3"}, "[4]": {"target": "T4, α-adrenergic2C (Homo sapiens, UniProt P18825)", "T4 construct": "ProLink enzyme-donor fragment of β-galactosidase (own knowledge of the PathHunter design)", "T4 sequence (P18825 whole entry, the tested form may be a part)": "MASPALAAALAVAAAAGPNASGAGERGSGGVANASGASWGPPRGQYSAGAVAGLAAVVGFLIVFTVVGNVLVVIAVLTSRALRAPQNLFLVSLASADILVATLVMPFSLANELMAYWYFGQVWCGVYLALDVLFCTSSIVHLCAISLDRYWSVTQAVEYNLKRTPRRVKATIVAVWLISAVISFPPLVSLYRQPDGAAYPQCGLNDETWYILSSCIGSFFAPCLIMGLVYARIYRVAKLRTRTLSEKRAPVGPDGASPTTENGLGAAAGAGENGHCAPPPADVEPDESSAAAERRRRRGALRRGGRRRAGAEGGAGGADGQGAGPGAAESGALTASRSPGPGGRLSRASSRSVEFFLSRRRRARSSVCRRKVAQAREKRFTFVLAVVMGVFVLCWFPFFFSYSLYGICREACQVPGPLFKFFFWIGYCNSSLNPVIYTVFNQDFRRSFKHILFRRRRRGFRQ", "experiment": "gpcrMAX PathHunter β-arrestin recruitment, antagonist mode", "type": "cell-based", "procedure": "as §1, §2, §3"}, "[5]": {"target": "T5, D5 (Homo sapiens, UniProt P21918)", "T5 construct": "ProLink enzyme-donor fragment of β-galactosidase (own knowledge of the PathHunter design)", "T5 sequence (P21918 whole entry, the tested form may be a part)": "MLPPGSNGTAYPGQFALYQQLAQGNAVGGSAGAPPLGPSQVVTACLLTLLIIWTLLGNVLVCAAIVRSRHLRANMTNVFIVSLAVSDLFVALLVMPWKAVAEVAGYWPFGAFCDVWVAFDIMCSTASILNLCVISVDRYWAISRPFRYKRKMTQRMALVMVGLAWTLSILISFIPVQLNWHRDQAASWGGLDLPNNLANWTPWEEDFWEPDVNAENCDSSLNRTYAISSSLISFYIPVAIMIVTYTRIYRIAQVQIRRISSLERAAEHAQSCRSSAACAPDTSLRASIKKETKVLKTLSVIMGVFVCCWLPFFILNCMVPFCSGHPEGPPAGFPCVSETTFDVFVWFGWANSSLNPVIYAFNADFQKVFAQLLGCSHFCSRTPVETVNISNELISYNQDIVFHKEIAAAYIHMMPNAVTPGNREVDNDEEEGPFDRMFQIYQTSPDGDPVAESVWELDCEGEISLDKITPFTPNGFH", "experiment": "gpcrMAX PathHunter β-arrestin recruitment, antagonist mode", "type": "cell-based", "procedure": "as §1, §2, §3"}, "[6]": {"target": "T6, α-adrenergic2A (Homo sapiens, UniProt P08913)", "T6 construct": "ProLink enzyme-donor fragment of β-galactosidase (own knowledge of the PathHunter design)", "T6 sequence (P08913 whole entry, the tested form may be a part)": "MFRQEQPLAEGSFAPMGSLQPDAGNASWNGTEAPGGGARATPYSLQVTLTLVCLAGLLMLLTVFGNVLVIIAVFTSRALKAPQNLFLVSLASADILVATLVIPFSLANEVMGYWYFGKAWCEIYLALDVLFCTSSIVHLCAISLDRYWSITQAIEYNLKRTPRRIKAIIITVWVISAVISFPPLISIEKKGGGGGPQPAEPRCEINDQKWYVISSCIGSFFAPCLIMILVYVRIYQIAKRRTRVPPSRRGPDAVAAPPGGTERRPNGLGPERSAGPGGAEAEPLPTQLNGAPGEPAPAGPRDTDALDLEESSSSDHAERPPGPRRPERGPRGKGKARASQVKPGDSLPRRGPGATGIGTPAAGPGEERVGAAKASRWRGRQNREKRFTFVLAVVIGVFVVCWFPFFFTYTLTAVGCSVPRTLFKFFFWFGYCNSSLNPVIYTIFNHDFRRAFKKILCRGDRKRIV", "experiment": "gpcrMAX PathHunter β-arrestin recruitment, antagonist mode", "type": "cell-based", "procedure": "as §1, §2, §3"}, "[7]": {"target": "T7, α-adrenergic1B (Homo sapiens, UniProt P35368)", "T7 construct": "ProLink enzyme-donor fragment of β-galactosidase (own knowledge of the PathHunter design)", "T7 sequence (P35368 whole entry, the tested form may be a part)": "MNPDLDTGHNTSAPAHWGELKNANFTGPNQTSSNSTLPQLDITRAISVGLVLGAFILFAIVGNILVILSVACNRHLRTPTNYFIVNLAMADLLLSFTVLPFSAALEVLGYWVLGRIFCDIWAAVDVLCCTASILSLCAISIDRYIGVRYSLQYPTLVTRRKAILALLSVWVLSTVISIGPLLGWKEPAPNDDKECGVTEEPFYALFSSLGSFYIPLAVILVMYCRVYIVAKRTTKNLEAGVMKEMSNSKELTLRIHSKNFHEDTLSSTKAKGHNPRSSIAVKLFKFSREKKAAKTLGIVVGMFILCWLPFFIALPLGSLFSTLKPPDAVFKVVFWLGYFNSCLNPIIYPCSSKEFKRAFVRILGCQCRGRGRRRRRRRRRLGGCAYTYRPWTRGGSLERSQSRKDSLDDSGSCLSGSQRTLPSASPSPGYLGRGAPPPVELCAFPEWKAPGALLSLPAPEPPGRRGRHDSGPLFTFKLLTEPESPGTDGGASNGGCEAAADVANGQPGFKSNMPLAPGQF", "experiment": "gpcrMAX PathHunter β-arrestin recruitment, antagonist mode", "type": "cell-based", "procedure": "as §1, §2, §3"}, "[8]": {"target": "T8, AMY2 (CTR-RAMP2) (Homo sapiens, UniProt O60895+P30988)", "T8 construct": "ProLink enzyme-donor fragment of β-galactosidase (own knowledge of the PathHunter design)", "T8 sequence (P30988 25-474)": "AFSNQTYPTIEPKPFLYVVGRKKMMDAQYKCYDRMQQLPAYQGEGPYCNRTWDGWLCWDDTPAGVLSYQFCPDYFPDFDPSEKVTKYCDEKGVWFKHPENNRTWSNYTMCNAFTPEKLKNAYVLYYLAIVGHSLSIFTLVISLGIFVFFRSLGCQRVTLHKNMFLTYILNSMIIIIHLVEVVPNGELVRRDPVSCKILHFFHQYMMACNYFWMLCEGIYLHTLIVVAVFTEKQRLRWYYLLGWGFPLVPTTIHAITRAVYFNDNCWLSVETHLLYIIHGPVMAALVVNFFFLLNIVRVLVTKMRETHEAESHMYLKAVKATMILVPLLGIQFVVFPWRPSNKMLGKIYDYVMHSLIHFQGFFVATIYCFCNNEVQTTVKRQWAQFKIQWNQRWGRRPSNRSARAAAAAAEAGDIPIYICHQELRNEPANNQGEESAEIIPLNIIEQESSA", "T8 sequence (O60895 43-175 partner)": "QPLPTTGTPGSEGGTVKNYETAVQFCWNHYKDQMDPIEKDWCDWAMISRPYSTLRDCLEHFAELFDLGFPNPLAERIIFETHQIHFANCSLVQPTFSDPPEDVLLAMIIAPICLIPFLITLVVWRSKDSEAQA", "experiment": "gpcrMAX PathHunter β-arrestin recruitment, antagonist mode", "type": "cell-based", "procedure": "as §1, §2, §3"}, "[9]": {"target": "T9, 5-HT1F (Homo sapiens, UniProt P30939)", "T9 construct": "ProLink enzyme-donor fragment of β-galactosidase (own knowledge of the PathHunter design)", "T9 sequence (P30939 1-366)": "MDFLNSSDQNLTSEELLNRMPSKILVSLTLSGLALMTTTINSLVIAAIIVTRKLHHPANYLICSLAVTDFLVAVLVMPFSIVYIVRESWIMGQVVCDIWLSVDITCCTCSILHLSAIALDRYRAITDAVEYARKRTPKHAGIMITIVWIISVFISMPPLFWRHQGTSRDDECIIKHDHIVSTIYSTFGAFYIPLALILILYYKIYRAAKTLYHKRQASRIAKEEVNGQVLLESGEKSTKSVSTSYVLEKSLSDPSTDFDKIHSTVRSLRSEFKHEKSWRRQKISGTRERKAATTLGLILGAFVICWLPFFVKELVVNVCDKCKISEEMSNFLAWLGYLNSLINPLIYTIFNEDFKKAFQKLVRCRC", "experiment": "gpcrMAX PathHunter β-arrestin recruitment, antagonist mode", "type": "cell-based", "procedure": "as §1, §2, §3"}, "[10]": {"test_system": "α-adrenergic2A", "conditions": "IV DHE (53 ng/mL); cited from earlier work"}, "[11]": {"target": "T10, 5-HT1B (Homo sapiens, UniProt P28222)", "T10 construct": "host or cells: Chem-1 cells", "T10 sequence (P28222 whole entry)": "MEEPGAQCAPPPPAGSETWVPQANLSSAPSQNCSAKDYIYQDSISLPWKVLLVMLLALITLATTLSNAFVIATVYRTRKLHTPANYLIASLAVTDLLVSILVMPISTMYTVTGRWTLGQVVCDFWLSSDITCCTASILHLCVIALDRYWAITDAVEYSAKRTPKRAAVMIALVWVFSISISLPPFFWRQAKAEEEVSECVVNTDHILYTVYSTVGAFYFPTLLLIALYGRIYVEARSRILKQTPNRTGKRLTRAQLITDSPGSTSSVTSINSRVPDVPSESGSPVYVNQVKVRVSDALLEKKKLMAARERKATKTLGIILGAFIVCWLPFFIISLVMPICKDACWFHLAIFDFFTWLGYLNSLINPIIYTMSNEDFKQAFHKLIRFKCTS", "experiment": "gpcrMAX PathHunter β-arrestin recruitment, agonist mode", "type": "cell-based", "conditions": "10 μM; >30% activity = agonist", "procedure": "as §1, §2, §3"}, "[12]": {"target": "T11, 5-HT1A (Homo sapiens, UniProt P08908)", "T11 construct": "ProLink enzyme-donor fragment of β-galactosidase (own knowledge of the PathHunter design)", "experiment": "gpcrMAX PathHunter β-arrestin recruitment, agonist mode", "type": "cell-based", "conditions": "10 μM; >30% activity = agonist", "procedure": "as §1, §2, §3"}, "[13]": {"target": "T5, D5", "experiment": "gpcrMAX PathHunter β-arrestin recruitment, agonist mode", "type": "cell-based", "conditions": "10 μM; >30% activity = agonist", "procedure": "as §1, §2, §3"}, "[14]": {"target": "T12, D2L (Homo sapiens, UniProt P14416)", "T12 construct": "ProLink enzyme-donor fragment of β-galactosidase (own knowledge of the PathHunter design)", "T12 sequence (P14416 whole entry, the tested form may be a part)": "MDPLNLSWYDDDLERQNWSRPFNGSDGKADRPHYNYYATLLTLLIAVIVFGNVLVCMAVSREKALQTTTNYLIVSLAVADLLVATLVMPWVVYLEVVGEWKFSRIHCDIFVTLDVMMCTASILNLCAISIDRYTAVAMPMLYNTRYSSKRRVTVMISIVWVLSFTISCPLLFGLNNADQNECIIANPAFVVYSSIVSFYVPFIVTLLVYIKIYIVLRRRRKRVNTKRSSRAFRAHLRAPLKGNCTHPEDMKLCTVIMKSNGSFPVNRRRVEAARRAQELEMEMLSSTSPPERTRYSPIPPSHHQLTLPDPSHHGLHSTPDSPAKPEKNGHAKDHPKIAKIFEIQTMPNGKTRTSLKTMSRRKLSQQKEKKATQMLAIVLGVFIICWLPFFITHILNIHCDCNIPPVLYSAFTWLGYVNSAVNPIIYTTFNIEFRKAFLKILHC", "experiment": "gpcrMAX PathHunter β-arrestin recruitment, agonist mode", "type": "cell-based", "conditions": "10 μM; >30% activity = agonist", "procedure": "as §1, §2, §3"}, "[15]": {"target": "T13, 5-HT5A (Homo sapiens, UniProt P47898)", "T13 construct": "ProLink enzyme-donor fragment of β-galactosidase (own knowledge of the PathHunter design)", "T13 sequence (P47898 whole entry, the tested form may be a part)": "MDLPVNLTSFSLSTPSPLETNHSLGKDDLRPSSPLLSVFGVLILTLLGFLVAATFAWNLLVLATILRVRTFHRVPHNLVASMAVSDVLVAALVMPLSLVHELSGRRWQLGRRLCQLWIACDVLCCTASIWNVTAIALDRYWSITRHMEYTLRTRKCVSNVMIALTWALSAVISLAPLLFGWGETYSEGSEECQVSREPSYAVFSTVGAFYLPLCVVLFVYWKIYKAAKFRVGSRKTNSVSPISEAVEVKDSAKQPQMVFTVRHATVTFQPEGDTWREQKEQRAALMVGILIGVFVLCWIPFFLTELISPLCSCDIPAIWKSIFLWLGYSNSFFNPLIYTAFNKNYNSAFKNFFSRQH", "experiment": "gpcrMAX PathHunter β-arrestin recruitment, agonist mode", "type": "cell-based", "conditions": "10 μM; >30% activity = agonist", "procedure": "as §1, §2, §3"}, "[16]": {"target": "T14, D2S (Homo sapiens, UniProt P14416)", "T14 construct": "ProLink enzyme-donor fragment of β-galactosidase (own knowledge of the PathHunter design)", "experiment": "gpcrMAX PathHunter β-arrestin recruitment, agonist mode", "type": "cell-based", "conditions": "10 μM; >30% activity = agonist", "procedure": "as §1, §2, §3"}, "[17]": {"target": "T15, 5-HT2C (Homo sapiens, UniProt P28335)", "T15 construct": "ProLink enzyme-donor fragment of β-galactosidase (own knowledge of the PathHunter design)", "T15 sequence (P28335 33-458)": "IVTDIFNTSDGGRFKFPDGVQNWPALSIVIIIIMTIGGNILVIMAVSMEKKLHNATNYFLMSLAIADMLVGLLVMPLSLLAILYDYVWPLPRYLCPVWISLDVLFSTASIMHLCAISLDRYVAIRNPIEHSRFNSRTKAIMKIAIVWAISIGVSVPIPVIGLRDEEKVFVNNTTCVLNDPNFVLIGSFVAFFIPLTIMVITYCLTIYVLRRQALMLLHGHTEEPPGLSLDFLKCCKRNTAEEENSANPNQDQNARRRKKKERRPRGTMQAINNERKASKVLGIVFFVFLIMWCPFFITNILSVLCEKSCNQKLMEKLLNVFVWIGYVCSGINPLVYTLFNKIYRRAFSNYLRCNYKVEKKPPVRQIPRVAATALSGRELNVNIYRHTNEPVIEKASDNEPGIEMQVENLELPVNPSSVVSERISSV", "experiment": "gpcrMAX PathHunter β-arrestin recruitment, agonist mode", "type": "cell-based", "conditions": "10 μM; >30% activity = agonist", "procedure": "as §1, §2, §3"}, "[18]": {"test_system": "5-HT1D", "set-up": "method as in doi:10.1186/1129-2377-14-S1-P75", "conditions": "cited from earlier work"}, "[19]": {"target": "T16, D2 (Homo sapiens, UniProt P14416)", "T16 construct": "host or cells: HEK-293", "experiment": "Radioligand competition binding, [3H]7-OH-DPAT, HEK-293 cells", "description": "All assays were performed in duplicate (ie, 2 replicates per assay, per standard manufacturer protocol)."}, "[20]": {"conditions": "10 μM, >50% inhibition = antagonist"}, "[21]": {"conditions": "agonist control Dopamine at EC80"}, "[22]": {"conditions": "agonist control UK 14,304 at EC80"}}, "note": "Counter-ions that a name gives are not always drawn."}
{"smiles": "CN1C[C@H](C(=O)N[C@]2(C)O[C@@]3(O)[C@@H]4CCCN4C(=O)[C@H](Cc4ccccc4)N3C2=O)C[C@@H]2c3cccc4[nH]cc(c34)C[C@H]21", "note": "[DHE, Dihydroergotamine mesylate]", "values": [{"measurement": "inhibition at 10 µM", "setting": "[1]", "value": 71, "unit": "%"}, {"measurement": "DHE activity (screening)", "setting": "[2]; [20]", "value": "Antagonist"}, {"measurement": "inhibition at 10 µM", "setting": "[2]; [21]", "value": 83, "unit": "%"}, {"measurement": "DHE activity (screening)", "setting": "[3]; [20]", "value": "Antagonist"}, {"measurement": "inhibition at 10 µM", "setting": "[3]; [21]", "value": 91, "unit": "%"}, {"measurement": "DHE activity (screening)", "setting": "[4]; [20]", "value": "Antagonist"}, {"measurement": "inhibition at 10 µM", "setting": "[4]; [22]", "value": 124, "unit": "%"}, {"measurement": "DHE activity (screening)", "setting": "[5]; [20]", "value": "Antagonist"}, {"measurement": "inhibition at 10 µM", "setting": "[5]; [21]", "value": 54, "unit": "%"}, {"measurement": "DHE activity (screening)", "setting": "[6]; [20]", "value": "Antagonist"}, {"measurement": "inhibition at 10 µM", "setting": "[6]; [22]", "value": 115, "unit": "%"}, {"measurement": "DHE activity (screening)", "setting": "[7]; [20]", "value": "Antagonist"}, {"measurement": "inhibition at 10 µM", "setting": "[7]; agonist control Phenylephrine at EC80", "value": 95, "unit": "%"}, {"measurement": "inhibition at 10 µM", "setting": "[8]", "value": 57, "unit": "%"}, {"measurement": "DHE activity (screening)", "setting": "[8]; [20]", "value": "Antagonist"}, {"measurement": "IC50", "setting": "[9]", "value": 149, "unit": "nM"}, {"measurement": "DHE activity (screening)", "setting": "[9]; [20]", "value": "Antagonist"}, {"measurement": "inhibition at 10 µM", "setting": "[9]; 10 μM, agonist control Serotonin at EC80", "value": 92, "unit": "%"}, {"measurement": "receptor radioligand binding (active binding)", "setting": "[10]", "value": "X (An X denotes active binding)"}, {"measurement": "DHE activity (screening)", "setting": "[11]", "value": "Agonist"}, {"measurement": "DHE activity (screening)", "setting": "[12]", "value": "Agonist"}, {"measurement": "DHE activity (screening)", "setting": "[13]", "value": "Agonist"}, {"measurement": "DHE activity (screening)", "setting": "[14]", "value": "Agonist"}, {"measurement": "DHE activity (screening)", "setting": "[15]", "value": "Agonist"}, {"measurement": "DHE activity (screening)", "setting": "[16]", "value": "Agonist"}, {"measurement": "DHE activity (screening)", "setting": "[17]", "value": "Agonist"}, {"measurement": "dissociation half-life", "setting": "[18]", "value": 1.28, "unit": "h"}, {"measurement": "IC50", "setting": "[19]", "value": 0.47, "unit": "nM"}]}
